# Results as given in patent publication US6294547A, “Naphthyridine deratives or salts thereof” (Nippon Kayaku Kabushiki Kaisha, priority 1997, dated 2001).
# Where a name gives a salt, the structure may show the parent alone.
# Legend:
# NK-2 receptors [1] = target: T1, NK-2 receptors (Rattus norvegicus, UniProt P16610); assay: Binding to NK-2 receptors (inhibition of radioactive 125I-neurokinin A binding); format: Fischer strain male rats (duodenum membranes); conditions: rat duodenum membrane; 125I-neurokinin A 1×10^-9 M; 90 min, room temperature; read-out: IC50 of drugs in binding of radioactive neurokinin A
# T1 construct: Duodenums isolated from Fischer strain male rats were homogenized; from tissue; host or cells: duodenum membranes of male Fischer rats
# T1 sequence (P16610 1-390): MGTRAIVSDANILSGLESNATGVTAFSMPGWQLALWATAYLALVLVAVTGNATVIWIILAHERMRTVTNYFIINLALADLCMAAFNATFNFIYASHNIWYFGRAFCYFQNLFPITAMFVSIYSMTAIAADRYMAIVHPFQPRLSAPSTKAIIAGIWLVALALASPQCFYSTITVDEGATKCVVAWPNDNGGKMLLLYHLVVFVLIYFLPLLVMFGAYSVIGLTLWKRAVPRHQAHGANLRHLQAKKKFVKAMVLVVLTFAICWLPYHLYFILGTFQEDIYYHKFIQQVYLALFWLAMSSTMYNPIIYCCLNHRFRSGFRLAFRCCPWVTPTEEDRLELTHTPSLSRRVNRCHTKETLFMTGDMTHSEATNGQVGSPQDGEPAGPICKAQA
# Protocol: Duodenums isolated from Fischer strain male rats were homogenized in 50 mM Tris-hydrochloric acid buffer (pH 7.4) containing saccharose (100 mg/ml) and ethylenediaminetetraacetic acid (1 mM), and the resulting homogenate was centrifuged at 48,000 g and 4° C. for 20 minutes. The pellet thus obtained was washed three times with 10 times as much 50 mM Tris-hydrochloric acid buffer (pH 7.4) containing KCl (300 mM) and ethylenediaminetetraacetic acid (10 mM) as the pellet by volume, and the resulting membrane preparation was suspended in 10 times as much 50 mM Tris-hydrochloric acid buffer (pH 7.4) as the membrane preparation by volume and stored at -80° C. until use. The membrane preparation (20 mg/ml) was incubated together with a radioactive ligand ^125 I-neurokinin A (1×10^-9 M) at room temperature for 90 minutes in the presence of each drug or a solvent therefor in 50 mM Tris-hydrochloricacid buffer (pH 7.4) containing bovine serum albumin (10 mg/ml), bacitracin (40 μg/ml), leupeptin (4 μg/ml), chymostatin (50 μg/ml), antipain (1×10^-4 M) and MnCl2 (1 mM). […] Then, radioactivity in the filter was measured with a gamma counter. The 50% inhibitory concentration (IC50) of the drug was determined by means of a regression line by considering radioactivity in the presence of Nle10 neurokinin A (4-10) (3×10^-6 M) to be due to nonspecific binding, and measuring the rate of inhibition of specific binding by the drug by carrying out a control experiment using the solvent alone.
# NK-2 receptors [2] = assay: Inhibitory effect on bronchoconstriction caused by stimulation of NK-2 receptors (Nle10 neurokinin A (4-10)); format: in vivo, Hartley strain male guinea pigs
# Protocol: There were used non-treated Hartley strain male guinea pigs and Hartley strain male guinea pigs received to active sensitization by subcutaneous administration of 30 mg/kg of ovalbumin 14 to 21 days before. The guinea pigs were anesthetized with pentobarbital and a tube was inserted into the trachea of each guinea pig. The guinea pigs were subjected to positive pressure respiration by means of an artificial respiratory apparatus at 10 ml/kg and 60 times/minute. The pressure in the edge of the tube in the trachea was measured as an indication of bronchoconstriction. Spontaneous respiration was inhibited by administering succinylcholine. The non-treated guinea pigs were repeatedly and intravenously injected with 2 nmol/kg of Nle10 neurokinin A (4-10), a specific stimulating agent for NK-2 receptors at intervals of 10 minutes. After the bronchoconstriction thus caused became stable, each drug was administered intravenously, orally or in duodenum. Nle10 neurokinin A (4-10) was intravenously injected again 3 minutes after the intravenous administration or 50 minutes after the oral administration or the administration in duodenum. The rate of inhibition by the drug was determined relative to the bronchoconstriction before the drug administration.
# Mouse = assay: Toxic effect on mouse, intravenous; format: in vivo; conditions: 65 μmol/kg intravenous
# From the text: The toxicity of the compounds of the present invention was investigated.
# [3] = 0.5 μmol/kg intravenous, 3 min after administration
# [4] = 8 μmol/kg oral, 50 min after administration
# [5] = 1 μmol/kg intravenous, 3 min after administration
SMILES,IC50 (NK-2 receptors [1]) [nM],"Inhibition (rate), stimulation of NK-2 receptors (NK-2 receptors [2]; [3]) [%]","Inhibition (rate), stimulation of NK-2 receptors (NK-2 receptors [2]; [4]) [%]",Toxicity (Mouse),"Inhibition (rate), stimulation of NK-2 receptors (NK-2 receptors [2]; [5]) [%]","Inhibition (rate), stimulation of NK-2 receptors (NK-2 receptors [2]; 0.6 μmol/kg intravenous, 3 min after administration) [%]","Inhibition (rate), stimulation of NK-2 receptors (NK-2 receptors [2]; 5 μmol/kg in duodenum, 50 min after administration) [%]"
"CC(=O)Nc1c2c(nc3ccccc13)CCN(CCC(CN(C)C(=O)c1ccccc1)c1ccc(Cl)c(Cl)c1)C2 (single isomer, unassigned) [Example 27, 2-[(-)-4-(N-benzoyl-N-methyl)amino-3-(3-4-dichlorophenylbutyl]-10-methylcarbonylamino-1,2,3,4-tetrahydro-benzo[b][1,6]naphthyridine fumarate]",18,100.0,81.5,None,–,–,–
"CN(CC(CCN1CCc2nc3ccccc3c(CO)c2C1)c1ccc(Cl)c(Cl)c1)C(=O)c1ccccc1 (single isomer, unassigned) [Example 37, 2-[(-)-4-(N-benzoyl-N-methyl)amino-3-(3,4-dichlorophenylbutyl]-10-hydroxymethyl-1,2,3,4-tetrahydro-benzo-[b][1,6]naphthyridine fumarate]",90,–,–,–,97.5,–,–
"CN(CC(CCN1CCc2nc3ccccc3c(C(N)=O)c2C1)c1ccc(Cl)c(Cl)c1)C(=O)c1ccccc1 (single isomer, unassigned) [Example 29, 2-[(-)-4-(N-benzoyl-N-methyl)amino-3-(3,4-dichlorophenyl)butyl]-1,2,3,4-tetrahydro-benzo-[b][1,6]naphthyridine-10-carboxamide fumarate]",59,–,43.5,–,–,100.0,–
"COC(=O)N(C)c1c2c(nc3ccccc13)CCN(CCC(CN(C)C(=O)c1ccccc1)c1ccc(Cl)c(Cl)c1)C2 (single isomer, unassigned) [Example 43, 2-[(-)-4-(N-benzoyl-N-methyl)amino-3-(3,4-dichlorophenyl)butyl]-10-(N-methyl-N-methoxycarbonyl)-amino-1,2,3,4-tetrahydro-benzo[b][1,6]naphthyridine fumarate]",66,86.2,–,–,–,–,–
"CN(CC(CCN1CCc2nc3ccccc3c(-c3ccccc3)c2C1)c1ccc(Cl)c(Cl)c1)C(=O)c1ccccc1 (single isomer, unassigned) [Example 39, 2-[(-)-4-(N-benzoyl-N-methyl)amino-3-(3,4-dichlorophenyl)butyl]-10-phenyl-1,2,3,4-tetrahydro-benzo[b][1,6]naphthyridine fumarate]",70,70.0,–,–,–,–,–

# More lines, main results first:
IC50 (NK-2 receptors [1]) [nM],SMILES,"Inhibition (rate), stimulation of NK-2 receptors (NK-2 receptors [2]; [3]) [%]","Inhibition (rate), stimulation of NK-2 receptors (NK-2 receptors [2]; [4]) [%]",Toxicity (Mouse),"Inhibition (rate), stimulation of NK-2 receptors (NK-2 receptors [2]; [5]) [%]","Inhibition (rate), stimulation of NK-2 receptors (NK-2 receptors [2]; 0.6 μmol/kg intravenous, 3 min after administration) [%]","Inhibition (rate), stimulation of NK-2 receptors (NK-2 receptors [2]; 5 μmol/kg in duodenum, 50 min after administration) [%]"
96,"COC(=O)c1c2c(nc3ccccc13)CCN(CCC(CN(C)C(=O)c1ccccc1)c1ccc(Cl)c(Cl)c1)C2 (single isomer, unassigned) [Example 31, 2-[(-)-4-(N-benzoyl-N-methyl1amino-3-(3,4-dichlorophenyl)butyl]-10-methoxycarbonyl-1,2,3,4-tetrahydro-benzo[b][1,6]naphthyridine fumarate]",–,53.5,–,100.0,–,–
30,"COC(=O)Nc1c2c(nc3ccccc13)CCN(CCC(CN(C)C(=O)c1ccccc1)c1ccc(Cl)c(Cl)c1)C2 (single isomer, unassigned) [Example 41, 2-[(-)-4-(N-benzoyl-N-methyl)amino-3-(3,4-dichlorophenyl)butyl]-10-methoxycarbonylamino-1,2,3,4-tetrahydro-benzo[b][1,6]naphthyridine fumarate]",97.0,–,–,–,–,62.0
94,"CN(CC(CCN1CCc2nc3ccccc3c(C(=O)O)c2C1)c1ccc(Cl)c(Cl)c1)C(=O)c1ccccc1 (single isomer, unassigned) [Example 33, 2-[(-)-4-(N-benzoyl-N-methyl)amino-3-(3,4-dichlorophenyl)butyl]-1,2,3,4-tetrahydro-benzo-[b][1,6]naphthyridine-10-carboxylic acid fumarate]",–,–,–,57.5,–,–
